Data on four compounds can be found in ChEMBL document CHEMBL3596184, “Prostate tumor specific peptide-peptoid hybrid prodrugs” (2015).

Numbered stars: 1 amine (or outer) side, 2 acyl side, 3 side chain; on linkers, the order of the positions; unused ones are H or OH. Square brackets hold non-standard residues; d marks the D form. Peptide text beside a SMILES is read from it. γGlu = O=C(O)[C@H](CCC(=O)[*:2])N[*:1]; Nspe = C[C@H](NCC(=O)O)c1ccccc1; Nlys = NCCCCNCC(=O)O

Holding throughout (type): functional
Assay [1] relates to LNCaP. As to the kind of experiment: Cytotoxicity against human LNCAP cells assessed as induction of cell death after 48 hrs by MTS assay. The settings on record: read-out: LC50 (the source's name).
Another assay relates to PC-3. As to the kind of experiment: Cytotoxicity against human PC3 cells assessed as induction of cell death after 48 hrs by MTS assay. To be noted: PC-3, 48 h, read-out: LC50 (the source's name). (In general: Formazan colour is commonly taken as a measure of viable cells.)
For assay [2], the system named is LNCaP. As to the kind of experiment: Selectivity ratio of LC50 for human PC3 cells to LC50 for human LNCaP cells.

As to `C[C@@H](c1ccccc1)N(CC(N)=O)C(=O)CN(C(=O)CN(CCCCN)C(=O)CN(C(=O)CN(C(=O)CN(CCCCN)C(=O)CN(C(=O)CN(C(=O)CN(CCCCN)C(=O)CN(C(=O)CN(C(=O)CN(CCCCN)C(=O)CC[C@H](N)C(=O)O)[C@@H](C)c1ccccc1)[C@@H](C)c1ccccc1)[C@@H](C)c1ccccc1)[C@@H](C)c1ccccc1)[C@@H](C)c1ccccc1)[C@@H](C)c1ccccc1)[C@@H](C)c1ccccc1`, the CC50 came to 9.5 µM in the assay on LNCaP [1] and 12 µM in the assay on PC-3. Besides, the RatioLC50 with LNCaP [2] was 1.3.

In the case of `CC(=O)N[C@@H](CCC(=O)N[C@@H](CCC(=O)N[C@@H](Cc1cnc[nH]1)C(=O)N[C@@H](CO)C(=O)N[C@@H](CO)C(=O)N[C@@H](CCCCN)C(=O)N[C@@H](CC(C)C)C(=O)N[C@@H](CCC(N)=O)C(=O)N(CCCCN)CC(=O)N(CC(=O)N(CC(=O)N(CCCCN)CC(=O)N(CC(=O)N(CC(=O)N(CCCCN)CC(=O)N(CC(=O)N(CC(=O)N(CCCCN)CC(=O)N(CC(=O)N(CC(N)=O)[C@@H](C)c1ccccc1)[C@@H](C)c1ccccc1)[C@@H](C)c1ccccc1)[C@@H](C)c1ccccc1)[C@@H](C)c1ccccc1)[C@@H](C)c1ccccc1)[C@@H](C)c1ccccc1)[C@@H](C)c1ccccc1)C(=O)O)C(=O)O` (Ac-[γGlu][γGlu]HSSKLQ[Nlys][Nspe][Nspe][Nlys][Nspe][Nspe][Nlys][Nspe][Nspe][Nlys][Nspe][Nspe]-NH2), the CC50 in the assay with LNCaP [1] amounted to 18 µM; in the assay on PC-3 it was 28 µM. Besides, the RatioLC50 with LNCaP [2] came to 1.6.

In the case of `CC(=O)N[C@@H](CCC(=O)N[C@@H](CCC(=O)N[C@@H](CCC(=O)N[C@@H](Cc1cnc[nH]1)C(=O)N[C@@H](CO)C(=O)N[C@@H](CO)C(=O)N[C@@H](CCCCN)C(=O)N[C@@H](CC(C)C)C(=O)N[C@@H](CCC(N)=O)C(=O)N(CCCCN)CC(=O)N(CC(=O)N(CC(=O)N(CCCCN)CC(=O)N(CC(=O)N(CC(=O)N(CCCCN)CC(=O)N(CC(=O)N(CC(=O)N(CCCCN)CC(=O)N(CC(=O)N(CC(N)=O)[C@@H](C)c1ccccc1)[C@@H](C)c1ccccc1)[C@@H](C)c1ccccc1)[C@@H](C)c1ccccc1)[C@@H](C)c1ccccc1)[C@@H](C)c1ccccc1)[C@@H](C)c1ccccc1)[C@@H](C)c1ccccc1)C(=O)O)C(=O)O)C(=O)O` (Ac-[γGlu][γGlu][γGlu]HSSKLQ[Nlys][Nspe][Nspe][Nlys][Nspe][Nspe][Nlys][Nspe][Nspe][Nlys][Nspe][Nspe]-NH2), the CC50 stood at 31 µM in the assay with LNCaP [1] and 37 µM with PC-3. Further, the RatioLC50 in the assay on LNCaP [2] is given as 1.2.

For `CC(=O)N[C@@H](CCC(=O)N[C@@H](CCC(=O)N[C@@H](CCC(=O)N[C@@H](CCC(=O)N[C@@H](Cc1cnc[nH]1)C(=O)N[C@@H](CO)C(=O)N[C@@H](CO)C(=O)N[C@@H](CCCCN)C(=O)N[C@@H](CC(C)C)C(=O)N[C@@H](CCC(N)=O)C(=O)N(CCCCN)CC(=O)N(CC(=O)N(CC(=O)N(CCCCN)CC(=O)N(CC(=O)N(CC(=O)N(CCCCN)CC(=O)N(CC(=O)N(CC(=O)N(CCCCN)CC(=O)N(CC(=O)N(CC(N)=O)[C@@H](C)c1ccccc1)[C@@H](C)c1ccccc1)[C@@H](C)c1ccccc1)[C@@H](C)c1ccccc1)[C@@H](C)c1ccccc1)[C@@H](C)c1ccccc1)[C@@H](C)c1ccccc1)[C@@H](C)c1ccccc1)C(=O)O)C(=O)O)C(=O)O)C(=O)O` (Ac-[γGlu][γGlu][γGlu][γGlu]HSSKLQ[Nlys][Nspe][Nspe][Nlys][Nspe][Nspe][Nlys][Nspe][Nspe][Nlys][Nspe][Nspe]-NH2), the CC50 in the assay on LNCaP [1] worked out at 35 µM; with PC-3 it was 47 µM. Also, the RatioLC50 with LNCaP [2] is recorded as 1.3.
